Source: ChEMBL document CHEMBL4402546, “Urea Derivatives in Modern Drug Discovery and Medicinal Chemistry” (J Med Chem, 2020)
Each block holds one compound with its values, some of them ahead of it.

What was measured:
DNA gyrase subunit B = DNA gyrase subunit B (Escherichia coli, UniProt P0AES6); assay: Inhibition of Escherichia coli DNA gyrase B incubated for 60 mins by malachite green dye based spectrometric analysis
[1] = Inhibition of Escherichia coli DNA topoisomerase 4 incubated for 60 mins by malachite green dye based spectrometric analysis
Protease = Protease (Human immunodeficiency virus 1, UniProt Q9YQ12); assay: Inhibition of HIV-1 protease by spectrofluorometric assay
Plasmodium berghei = assay: Antiparasitic activity against blood stage Plasmodium berghei ANKA infected in ARC mouse assessed as suppression of parasitemia at 32 mg/kg, sc administered twice daily with 6 hrs apart for 4 consecutive days by Giemsa staining based microscopic analysis relative to control
Plasmodium falciparum [2] = assay: Antimalarial activity against Plasmodium falciparum 3D7 incubated for 48 hrs by [3H]-hypoxanthine incorporation assay; format: functional, organism-based
Plasmodium falciparum [3] = assay: Antimalarial activity against Plasmodium falciparum Dd2 incubated for 48 hrs by [3H]-hypoxanthine incorporation assay; format: functional, organism-based
[4] = target: Metabotropic glutamate receptor 1 (Homo sapiens, UniProt Q13255); assay: Inhibition of mGluR1 (unknown origin)
[5] = target: Metabotropic glutamate receptor 4 (Homo sapiens, UniProt Q14833); assay: Inhibition of mGluR4 (unknown origin)
[6] = target: Metabotropic glutamate receptor 5 (Rattus norvegicus, UniProt P31424); assay: Inhibition of rat mGluR5 expressed in HEK293A cells preincubated for 140 secs followed by EC20 glutamate stimulation for 74 secs and subsequent EC80 glutamate addition and measured up to 40 secs by Fluo-4-AM dye based fluorescence assay; format: cell-based
[7] = target: Metabotropic glutamate receptor 8 (Homo sapiens, UniProt O00222); assay: Inhibition of mGluR8 (unknown origin)
[8] = target: Metabotropic glutamate receptor 2 (Homo sapiens, UniProt Q14416); assay: Inhibition of mGluR2 (unknown origin)
[9] = target: Metabotropic glutamate receptor 3 (Homo sapiens, UniProt Q14832); assay: Inhibition of mGluR3 (unknown origin)
[10] = target: Metabotropic glutamate receptor 7 (Homo sapiens, UniProt Q14831); assay: Inhibition of mGluR7 (unknown origin)
[11] = target: RAF proto-oncogene serine/threonine-protein kinase (Homo sapiens, UniProt P04049); assay: Inhibition of c-RAF (unknown origin)
[12] = target: Serine/threonine-protein kinase B-raf (Homo sapiens, UniProt P15056, V600E); assay: Inhibition of BRAF V600E mutant (unknown origin)
LoVo = assay: Antiproliferative activity against human LoVo cells after 72 hrs by CCK8 assay; format: functional, cell-based
HT-29 = assay: Antiproliferative activity against human HT-29 cells after 72 hrs by CCK8 assay; format: functional, cell-based; settings: HT-29, 72 h
[13] = Half life in schizophrenic patient at 1.5 to 12.5 mg/day; format: ADME; settings: human, in vivo
[14] = Half life in plasma (unknown origin); format: ADME, cell-free

Metabotropic glutamate receptor 1, sequence (Q13255 whole entry): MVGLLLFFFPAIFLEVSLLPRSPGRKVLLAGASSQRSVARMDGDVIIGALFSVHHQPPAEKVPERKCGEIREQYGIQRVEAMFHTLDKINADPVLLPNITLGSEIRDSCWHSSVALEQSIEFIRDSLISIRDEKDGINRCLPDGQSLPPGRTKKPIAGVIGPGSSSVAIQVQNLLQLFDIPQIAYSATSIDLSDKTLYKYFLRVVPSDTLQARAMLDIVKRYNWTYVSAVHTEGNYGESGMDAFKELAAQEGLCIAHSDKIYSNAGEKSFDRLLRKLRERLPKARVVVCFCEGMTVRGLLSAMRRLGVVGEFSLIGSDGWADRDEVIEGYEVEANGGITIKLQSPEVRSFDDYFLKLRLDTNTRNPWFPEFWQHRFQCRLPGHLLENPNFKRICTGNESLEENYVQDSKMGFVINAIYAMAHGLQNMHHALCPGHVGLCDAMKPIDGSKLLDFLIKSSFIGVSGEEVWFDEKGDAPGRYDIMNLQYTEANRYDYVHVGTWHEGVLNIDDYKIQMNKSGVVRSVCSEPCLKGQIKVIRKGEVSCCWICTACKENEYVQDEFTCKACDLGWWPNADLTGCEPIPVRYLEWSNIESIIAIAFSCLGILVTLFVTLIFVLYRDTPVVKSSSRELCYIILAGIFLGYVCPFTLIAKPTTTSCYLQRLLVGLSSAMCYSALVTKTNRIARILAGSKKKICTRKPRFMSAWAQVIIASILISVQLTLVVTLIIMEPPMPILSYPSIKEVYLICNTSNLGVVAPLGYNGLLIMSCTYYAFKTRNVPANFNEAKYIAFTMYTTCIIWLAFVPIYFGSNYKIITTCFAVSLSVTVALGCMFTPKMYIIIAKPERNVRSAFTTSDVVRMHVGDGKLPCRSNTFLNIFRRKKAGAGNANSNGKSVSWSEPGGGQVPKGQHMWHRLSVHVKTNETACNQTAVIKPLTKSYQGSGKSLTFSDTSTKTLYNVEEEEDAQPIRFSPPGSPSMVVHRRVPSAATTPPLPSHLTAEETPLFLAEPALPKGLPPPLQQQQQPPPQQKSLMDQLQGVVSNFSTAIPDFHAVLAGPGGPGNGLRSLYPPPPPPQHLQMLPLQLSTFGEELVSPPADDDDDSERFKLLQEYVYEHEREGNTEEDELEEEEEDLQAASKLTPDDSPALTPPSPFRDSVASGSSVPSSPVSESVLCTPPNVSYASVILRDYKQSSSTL
Metabotropic glutamate receptor 5, sequence (P31424 whole entry): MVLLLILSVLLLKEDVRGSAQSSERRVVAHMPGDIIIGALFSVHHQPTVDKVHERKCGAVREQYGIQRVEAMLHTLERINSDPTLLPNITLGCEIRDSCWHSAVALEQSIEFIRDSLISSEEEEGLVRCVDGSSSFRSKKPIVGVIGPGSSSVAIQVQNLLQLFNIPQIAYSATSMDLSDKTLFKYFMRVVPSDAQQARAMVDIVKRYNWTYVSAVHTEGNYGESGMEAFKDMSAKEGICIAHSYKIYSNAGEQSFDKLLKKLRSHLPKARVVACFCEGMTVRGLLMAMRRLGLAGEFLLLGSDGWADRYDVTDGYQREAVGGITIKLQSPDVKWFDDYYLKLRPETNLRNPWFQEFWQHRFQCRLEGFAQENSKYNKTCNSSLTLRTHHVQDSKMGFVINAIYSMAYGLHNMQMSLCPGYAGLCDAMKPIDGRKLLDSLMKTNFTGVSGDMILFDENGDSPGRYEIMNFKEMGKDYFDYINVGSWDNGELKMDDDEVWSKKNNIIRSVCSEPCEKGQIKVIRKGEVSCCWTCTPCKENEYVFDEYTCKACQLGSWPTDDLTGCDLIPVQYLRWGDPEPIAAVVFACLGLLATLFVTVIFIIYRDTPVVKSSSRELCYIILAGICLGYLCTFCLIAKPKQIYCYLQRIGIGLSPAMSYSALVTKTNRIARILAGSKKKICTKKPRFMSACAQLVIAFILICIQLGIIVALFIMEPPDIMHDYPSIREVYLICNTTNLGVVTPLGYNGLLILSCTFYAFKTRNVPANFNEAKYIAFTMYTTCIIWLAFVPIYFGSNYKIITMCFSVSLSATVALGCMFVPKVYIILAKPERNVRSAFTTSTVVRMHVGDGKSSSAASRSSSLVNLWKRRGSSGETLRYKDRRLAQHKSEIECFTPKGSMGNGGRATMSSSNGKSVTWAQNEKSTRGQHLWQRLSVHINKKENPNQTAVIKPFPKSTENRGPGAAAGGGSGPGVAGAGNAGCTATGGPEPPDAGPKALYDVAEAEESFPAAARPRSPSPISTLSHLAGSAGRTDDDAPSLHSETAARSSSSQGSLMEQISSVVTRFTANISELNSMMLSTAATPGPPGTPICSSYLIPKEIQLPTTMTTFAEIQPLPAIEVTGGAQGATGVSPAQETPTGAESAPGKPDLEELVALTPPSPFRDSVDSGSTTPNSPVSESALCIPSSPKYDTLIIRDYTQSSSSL
Serine/threonine-protein kinase B-raf, sequence (P15056 2-766 V600E limits assumed): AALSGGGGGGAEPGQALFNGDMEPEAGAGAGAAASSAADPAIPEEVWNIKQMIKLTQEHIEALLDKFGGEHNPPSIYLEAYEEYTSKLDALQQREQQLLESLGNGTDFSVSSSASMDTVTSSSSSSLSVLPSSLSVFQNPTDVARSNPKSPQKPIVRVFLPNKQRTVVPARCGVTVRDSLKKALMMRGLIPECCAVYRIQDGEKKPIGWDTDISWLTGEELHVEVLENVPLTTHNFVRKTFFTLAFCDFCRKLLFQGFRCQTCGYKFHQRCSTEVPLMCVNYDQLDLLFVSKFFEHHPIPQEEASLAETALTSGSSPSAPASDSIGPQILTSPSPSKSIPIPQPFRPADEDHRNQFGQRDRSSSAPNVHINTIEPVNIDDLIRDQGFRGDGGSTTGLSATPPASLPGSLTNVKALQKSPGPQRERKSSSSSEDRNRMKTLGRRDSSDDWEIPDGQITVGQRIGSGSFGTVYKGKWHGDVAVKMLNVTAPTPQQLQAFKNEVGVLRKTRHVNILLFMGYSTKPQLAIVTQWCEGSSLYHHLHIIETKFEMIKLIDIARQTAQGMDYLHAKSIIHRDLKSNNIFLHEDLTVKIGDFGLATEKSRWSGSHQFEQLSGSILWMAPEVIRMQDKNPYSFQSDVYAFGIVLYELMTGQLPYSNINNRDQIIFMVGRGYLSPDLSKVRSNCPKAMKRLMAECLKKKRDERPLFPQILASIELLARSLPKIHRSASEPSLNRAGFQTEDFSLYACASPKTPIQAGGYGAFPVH
Metabotropic glutamate receptor 4, sequence (Q14833 whole entry): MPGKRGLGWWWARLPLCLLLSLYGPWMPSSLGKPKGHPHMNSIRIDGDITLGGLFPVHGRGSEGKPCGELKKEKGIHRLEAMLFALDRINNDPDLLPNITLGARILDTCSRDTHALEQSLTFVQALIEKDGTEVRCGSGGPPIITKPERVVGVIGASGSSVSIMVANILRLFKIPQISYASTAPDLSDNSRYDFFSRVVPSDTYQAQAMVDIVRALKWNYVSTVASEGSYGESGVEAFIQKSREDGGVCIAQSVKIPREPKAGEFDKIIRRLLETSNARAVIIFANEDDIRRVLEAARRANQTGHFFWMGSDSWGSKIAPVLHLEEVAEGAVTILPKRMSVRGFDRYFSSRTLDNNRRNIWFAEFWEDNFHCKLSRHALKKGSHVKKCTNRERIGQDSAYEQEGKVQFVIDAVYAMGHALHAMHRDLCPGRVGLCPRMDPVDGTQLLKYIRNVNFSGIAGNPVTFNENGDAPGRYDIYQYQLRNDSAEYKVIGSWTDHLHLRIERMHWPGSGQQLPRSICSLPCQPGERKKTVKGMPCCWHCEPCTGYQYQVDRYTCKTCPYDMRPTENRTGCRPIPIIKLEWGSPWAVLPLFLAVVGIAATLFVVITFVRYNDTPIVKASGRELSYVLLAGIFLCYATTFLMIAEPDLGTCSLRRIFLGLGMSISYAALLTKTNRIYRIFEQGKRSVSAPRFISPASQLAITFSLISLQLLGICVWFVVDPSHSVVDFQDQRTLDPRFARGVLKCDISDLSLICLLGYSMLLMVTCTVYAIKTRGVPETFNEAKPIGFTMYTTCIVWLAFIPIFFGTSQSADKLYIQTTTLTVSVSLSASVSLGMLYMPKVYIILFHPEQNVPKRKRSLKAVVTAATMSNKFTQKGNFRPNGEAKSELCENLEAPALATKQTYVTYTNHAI
Metabotropic glutamate receptor 8, sequence (O00222 whole entry): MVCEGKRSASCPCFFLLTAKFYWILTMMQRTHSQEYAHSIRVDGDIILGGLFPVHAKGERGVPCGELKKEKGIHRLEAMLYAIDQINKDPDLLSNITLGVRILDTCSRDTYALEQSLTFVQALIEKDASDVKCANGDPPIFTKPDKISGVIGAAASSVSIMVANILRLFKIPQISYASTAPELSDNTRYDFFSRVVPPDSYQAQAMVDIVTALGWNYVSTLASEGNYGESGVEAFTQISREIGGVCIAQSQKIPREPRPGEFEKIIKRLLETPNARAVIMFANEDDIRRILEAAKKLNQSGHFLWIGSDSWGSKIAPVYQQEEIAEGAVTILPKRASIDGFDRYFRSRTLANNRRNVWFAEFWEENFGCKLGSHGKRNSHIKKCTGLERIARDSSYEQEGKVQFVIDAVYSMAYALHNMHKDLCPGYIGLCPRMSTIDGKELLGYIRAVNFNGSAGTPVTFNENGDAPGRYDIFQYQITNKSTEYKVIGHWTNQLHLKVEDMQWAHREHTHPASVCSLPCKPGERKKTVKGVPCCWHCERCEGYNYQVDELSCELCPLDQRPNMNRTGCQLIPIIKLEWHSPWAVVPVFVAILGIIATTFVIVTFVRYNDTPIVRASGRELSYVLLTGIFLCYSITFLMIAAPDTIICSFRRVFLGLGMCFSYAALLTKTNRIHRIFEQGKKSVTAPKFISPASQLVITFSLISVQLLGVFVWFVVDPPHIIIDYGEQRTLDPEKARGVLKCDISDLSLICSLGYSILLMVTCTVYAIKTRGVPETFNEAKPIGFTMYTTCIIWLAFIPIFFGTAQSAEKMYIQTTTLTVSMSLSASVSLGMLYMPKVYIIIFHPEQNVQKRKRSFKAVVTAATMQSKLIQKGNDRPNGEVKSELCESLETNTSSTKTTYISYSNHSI
Protease, sequence (Q9YQ12 whole entry): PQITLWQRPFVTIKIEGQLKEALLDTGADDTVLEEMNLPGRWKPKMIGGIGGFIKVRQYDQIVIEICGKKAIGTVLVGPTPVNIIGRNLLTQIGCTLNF

IC50 (DNA gyrase subunit B): < 0.199 µM
IC50 [1]: < 0.1 µg/mL
Compound: CCNC(=O)Nc1nc2cc(-c3cnc(N4CCC(C(=O)O)CC4)nc3)cc(-c3ccccn3)c2s1

IC50 (Protease): 0.0063 µM
Compound: CC(C)CN(C[C@@H](O)[C@H](Cc1ccccc1)NC(=O)[C@H](CC(N)=O)NC(=O)c1ccc2ccccc2n1)C(=O)NC(C)(C)C

IC50 (Plasmodium falciparum [2]): 0.644 µM
IC50 (Plasmodium falciparum [3]): 0.525 µM
Compound: CCCCNC(=O)NCCc1c[nH]c2c1C(=O)C1=C(NC=CS1(=O)=O)C2=O
Activity (Plasmodium berghei): 26%

IC50 [4]: > 30 µM
IC50 [5]: > 30 µM
IC50 [6]: 0.013 µM
IC50 [7]: > 30 µM
IC50 [8]: > 30 µM
IC50 [9]: > 30 µM
IC50 [10]: > 30 µM
Compound: N#Cc1cc(F)cc(NC(=O)Nc2ccc(Cl)cn2)c1

IC50 [11]: 0.061 µM
IC50 [12]: 0.316 µM
Compound: CNC(=O)c1cc(Oc2cccc3nc(NC(=O)Nc4ccc(Cl)c(C(F)(F)F)c4)ccc23)ccn1

IC50 (LoVo): 1.5 µM
IC50 (HT-29): 1.9 µM
Compound: N#Cc1cc(O)ccc1-c1ccc(NC(=O)Nc2ccc(Cl)c(C(F)(F)F)c2)cc1

half-life [13]: 48 to 120 h
Compound: CN(C)C(=O)N[C@H]1CC[C@H](CCN2CCN(c3cccc(Cl)c3Cl)CC2)CC1 [CARIPRAZINE]

half-life [14]: 1.2 h
Compound: CC(C)c1nc(CN(C)C(=O)N[C@H](C(=O)N[C@@H](Cc2ccccc2)C[C@H](O)[C@H](Cc2ccccc2)NC(=O)OCc2cncs2)C(C)C)cs1 [RITONAVIR]
